From paper PMC6272674, “Selected Compounds Structurally Related to Acyclic Sesquiterpenoids and Their Antibacterial and Cytotoxic Activity” (Molecules, 2015)
≈ marks a conversion by molar mass, not a printed value. Read-outs that look alike come from different tables or passages of the source.

Assays:
[1] = tested on: Promyelocytic Leukaemia HL-60; assay: MTT viability, HL-60; format: cell-based, human; conditions: HL-60, MTT, range 10–1000 µM, read-out: half maximal inhibitory concentration (IC50), interpolated
Procedure: (§1) Cell lines and in vitro culture conditions: The human promyelocytic leukaemia cell line HL-60 was obtained from the Centre of Molecular and Macromolecular Biology in Łódź, Poland and was cultured in RPMI 1640 medium with 20% heat-inactivated fetal bovine serum (FBS). To reduce spontaneous differentiation, the cells were never allowed to exceed a concentration of 1.0 × 10^6 cells/mL. The human keratinocyte cell line HaCaT was obtained from Cell Lines Service, Germany (CLS) and cultured in DMEM medium with 10% FBS. Human colorectal adenocarcinoma HT29 and normal epithelial IEC-6 cell lines (from ATCC) were cultured in DMEM medium with 10% FBS. The human skin melanoma cell line MEWO (from CLS) was cultured in DMEM:F12 supplemented with 2 mM L-glutamine and 10% FBS. Human fibroblasts from gingiva isolated from original tissue, HFIB-G, (from Provitro) were cultured in Quantum 333 (from Immunique). The media were supplemented with 100 U/mL penicillin and 100 µg/mL streptomycin; all media components were obtained from Life Technologies. The adherent cell lines used in the studies were seeded on microplates before they exceeded 80% of confluence. Cells were cultured at 37 °C in 5% CO2 air atmosphere/95% air atmosphere.
(§2) Cytotoxic activity: The cells (the density for HL-60 was 0.5 × 10^4 cells/100 µL, otherwise it was 1 × 10^4 cells/100 µL) were plated into each well of 96-well microtiter plates and, after their attachment to the plate surface, treated with 10 µL of the indicated concentrations of compounds for 24 h. Viability was determined by MTT assay following the treatment. MTT (3-[4.5-dimethylthiazol-2-yl]-2.5-diphenyltetrazolium bromide; Sigma, St. Louis, MO, USA) solution was added to each well and incubated for another 4 h. The resulting MTT-formazan product was dissolved by the addition of lysis buffer (20% SDS and 50% DMF). The amount of formazan was determined by measuring absorbance at 570 nm with a Synergy 2 microplate reader (BioTek, Winooski, VT, USA) operated by the Gen5 program. The experiments were conducted three times with five replications. The results are expressed as an optical density ratio of the treatment to control. All data are presented as means ± SD.

MTT viability, HT29 = format: cell-based, human; conditions: human, HT29 colorectal adenocarcinoma cells, 1000 µM (IC50 exceeded 1000 µM), read-out: viability ± standard deviation at 1000 µM
Procedure: as §1, §2

MTT viability, HaCaT = format: cell-based, human; conditions: human, HaCaT keratinocytes, 1000 µM (IC50 exceeded 1000 µM), read-out: viability ± standard deviation at 1000 µM
Procedure: as §1, §2

[2] = tested on: Klebsiella pneumoniae ATCC 700603; design: method as in doi:10.1002/ffj.3238; conditions: data presented by the authors before; cited from earlier work
[3] = tested on: Escherichia coli ATCC 25922; design: method as in doi:10.1002/ffj.3238; conditions: data presented by the authors before; cited from earlier work
MTT viability, HFIG = format: cell-based, human; conditions: human, HFIG (HFIB-G) gingival fibroblasts, 1000 µM (IC50 exceeded 1000 µM), read-out: viability ± standard deviation at 1000 µM
Procedure: as §1, §2

[4] = tested on: Enterococcus faecium ATCC 35667; design: method as in doi:10.1002/ffj.3238; conditions: data presented by the authors before; cited from earlier work
MTT viability, MEWO = format: cell-based, human; conditions: human, MEWO malignant melanoma cells, 1000 µM (IC50 exceeded 1000 µM), read-out: viability ± standard deviation at 1000 µM
Procedure: as §1, §2

[5] = tested on: Enterococcus faecalis ATCC 51299; design: method as in doi:10.1002/ffj.3238; conditions: data presented by the authors before; cited from earlier work
[6] = tested on: Acinetobacter baumannii ATCC 19606; design: method as in doi:10.1002/ffj.3238; conditions: data presented by the authors before; cited from earlier work
[7] = tested on: Staphylococcus aureus ATCC 43300; design: method as in doi:10.1002/ffj.3238; conditions: data presented by the authors before; cited from earlier work
MTT viability, IEC6 = format: cell-based; conditions: rat, IEC-6 small intestine epithelial cells, 1000 µM (IC50 exceeded 1000 µM), read-out: viability ± standard deviation at 1000 µM
Procedure: as §1, §2

[8] = tested on: Acinetobacter baumannii ATCC 19606; assay: Micro-dilution broth MIC, Acinetobacter baumannii; format: cell-based; conditions: ATCC19606, 24 h, 37 °C, read-out: Minimum Inhibitory Concentrations MIC
Procedure: (§3) The standard strains, Gram-positive: Staphylococcus aureus ATCC […], Enterococcus faecalis Van B ATCC 51299 and Enterococcus faecium VA sensitive ATCC 35667, and Gram-negative: Escherichia coli ATCC 25922, Klebsiella pneumoniae ATCC 700603 and Acinetobacter baumannii ATCC 19606, came from a collection of the Environmental Biology Department, Medical University of Łódź. The standard strains were cultivated in Columbia Agar Medium and incubated at 37 °C for 24 h in aerobic conditions.
(§4) The antibacterial activity of the racemates and E/Z-mixtures was investigated using the micro‑dilution broth method. The compounds were diluted in ethanol. This stock solution was mixed with 100 µL of Mueller-Hinton broth to obtain concentrations from 10 µg/mL to 80 µg/mL. The mixtures were then transferred to 96-well microtiter plates. The microbial suspension was standardised to a cell density of 1.5 × 10^8 CFU, which was equal to an optical density of 0.5 on the Mc Farland scale by a bio-Merieux densitometer; one well was filled with broth only to act as a control for strain growth.

[9] = tested on: Enterococcus faecium ATCC 35667; assay: Micro-dilution broth MIC, Enterococcus faecium; format: cell-based; conditions: ATCC35667, 24 h, 37 °C, read-out: Minimum Inhibitory Concentrations MIC
Procedure: as §3, §4

Keratinocytes HaCaT = assay: MTT viability, HaCaT; format: cell-based, human; conditions: Homo sapiens, 24 h, range 10–1000 µM, read-out: half maximal inhibitory concentration (IC50), interpolated
Procedure: as §1, §2

[10] = tested on: Enterococcus faecalis ATCC 51299; assay: Micro-dilution broth MIC, Enterococcus faecalis; format: cell-based; conditions: ATCC51299, 24 h, 37 °C, read-out: Minimum Inhibitory Concentrations MIC
Procedure: as §3, §4

Fibroblasts HFIG = assay: MTT viability, HFIG; format: cell-based, human; conditions: Homo sapiens, Fibroblast, 24 h, range 10–1000 µM, read-out: half maximal inhibitory concentration (IC50), interpolated
Procedure: as §1, §2

[11] = tested on: Staphylococcus aureus ATCC 43300; assay: Micro-dilution broth MIC, Staphylococcus aureus; format: cell-based; conditions: ATCC43300, 24 h, 37 °C, read-out: Minimum Inhibitory Concentrations MIC
Procedure: as §3, §4

Malignant Melanoma MEWO = assay: MTT viability, MEWO; format: cell-based, human; conditions: Homo sapiens, 24 h, range 10–1000 µM, read-out: half maximal inhibitory concentration (IC50), interpolated
Procedure: as §1, §2

[12] = tested on: Klebsiella pneumoniae ATCC 700603; assay: Micro-dilution broth MIC, Klebsiella pneumoniae; format: cell-based; conditions: ATCC700603, 24 h, 37 °C, read-out: Minimum Inhibitory Concentrations MIC
Procedure: as §3, §4

[13] = tested on: Escherichia coli ATCC 25922; assay: Micro-dilution broth MIC, Escherichia coli; format: cell-based; conditions: ATCC25922, 24 h, 37 °C, read-out: Minimum Inhibitory Concentrations MIC
Procedure: as §3, §4

Row | IC50 ([1]; Homo sapiens, HL-60, 24 h) [µM] | MIC [8] [µg/mL] | MIC [9] [µg/mL] | MIC [10] [µg/mL] | MIC [11] [µg/mL] | IC50 (Malignant Melanoma MEWO) [µM] | MIC [12] [µg/mL] | MIC [13] [µg/mL] | Compound | viability at 24 h, 1000 µM (MTT viability, HT29) [%] | viability at 24 h, 1000 µM (MTT viability, IEC6) [%] | IC50 (Keratinocytes HaCaT) [µM] | IC50 (Fibroblasts HFIG) [µM] | other results
1 | 400 | – | – | – | – | – | – | – | C=CC(C)(O)CCC=CC(C)CCC=C(C)C (stereo not shown) [Compound 13] | 99 | 96 | – | – | viability at 24 h, 1000 µM (MTT viability, HaCaT): 87%; Minimum Inhibitory Concentrations MIC [2]: 20 µg/mL; Minimum Inhibitory Concentrations MIC [3]: 40 µg/mL; viability at 24 h, 1000 µM (MTT viability, HFIG): 87%; Minimum Inhibitory Concentrations MIC [4]: 38 µg/mL; viability at 24 h, 1000 µM (MTT viability, MEWO): 83%; Minimum Inhibitory Concentrations MIC [5]: 42 µg/mL; Minimum Inhibitory Concentrations MIC [6]: 22 µg/mL; Minimum Inhibitory Concentrations MIC [7]: 46 µg/mL
2 | ~1000 | – | – | – | – | – | – | – | C=CC(C)(O)CCC(C)CCC=C(C)C (stereo not shown) [Compound 16] | 102 | 113 | – | – | IC50 ([1]; 24 h): 950 µM; viability at 24 h, 1000 µM (MTT viability, HaCaT): 89%; Minimum Inhibitory Concentrations MIC [2]: 24 µg/mL; Minimum Inhibitory Concentrations MIC [3]: 32 µg/mL; viability at 24 h, 1000 µM (MTT viability, HFIG): 106%; Minimum Inhibitory Concentrations MIC [4]: 36 µg/mL; viability at 24 h, 1000 µM (MTT viability, MEWO): 100%; Minimum Inhibitory Concentrations MIC [5]: 38 µg/mL; Minimum Inhibitory Concentrations MIC [6]: 22 µg/mL; Minimum Inhibitory Concentrations MIC [7]: 48 µg/mL
3 | 750 | – | – | – | – | – | – | – | C=CC(C)(O)CC(C)CCC=C(C)C (stereo not shown) [Compound 15] | 104 | 110 | – | – | viability at 24 h, 1000 µM (MTT viability, HaCaT): 90%; Minimum Inhibitory Concentrations MIC [2]: 16 µg/mL; Minimum Inhibitory Concentrations MIC [3]: 28 µg/mL; viability at 24 h, 1000 µM (MTT viability, HFIG): 96%; Minimum Inhibitory Concentrations MIC [4]: 38 µg/mL; viability at 24 h, 1000 µM (MTT viability, MEWO): 104%; Minimum Inhibitory Concentrations MIC [5]: 48 µg/mL; Minimum Inhibitory Concentrations MIC [6]: 16 µg/mL; Minimum Inhibitory Concentrations MIC [7]: 46 µg/mL
4 | 600 | 52 (≈ 268 µM) | 42 (≈ 216 µM) | 38 (≈ 196 µM) | 32 (≈ 165 µM) | 640 | 48 (≈ 247 µM) | 54 (≈ 278 µM) | CC(C)=CCCC(C)CC(C)=CC=O (stereo not shown) [Compound 21, 3,5,9-Trimethyldeca-2,8-dienal] | 98 | 91 | 830 | 830 | –
5 | 198 | 18 (≈ 85.6 µM) | 16 (≈ 76.1 µM) | 18 (≈ 85.6 µM) | 26 (≈ 124 µM) | 512 | 16 (≈ 76.1 µM) | 28 (≈ 133 µM) | CC(C)=CCCC(C)CCC(C)=CCO (stereo not shown) [Compound 28, 3,6,10-Trimethylundeca-2,9-dien-1-ol] | 93 | 101 | 698 | 687 | –
6 | 252 | 32 (≈ 143 µM) | 18 (≈ 80.2 µM) | 22 (≈ 98 µM) | 28 (≈ 125 µM) | 587 | 36 (≈ 160 µM) | 38 (≈ 169 µM) | CC(C)=CCCC(C)CC(C)C(C)=CCO (stereo not shown) [Compound 29, 3,4,6,10-Tetramethylundeca-2,9-dien-1-ol] | 82 | 103 | 946 | 756 | –
7 | 167 | 44 (≈ 186 µM) | 34 (≈ 144 µM) | 32 (≈ 135 µM) | 28 (≈ 118 µM) | 500 | 48 (≈ 203 µM) | 50 (≈ 212 µM) | CC(C)=CCCC(C)/C=C/CCC(C)=CCO (stereo not shown) [Compound 25, (6E)-3,8,12-Trimethyltrideca-2,6,11-trien-1-ol] | 108 | 82 | 667 | 454 | –
8 | 278 | 22 | 20 | 22 | 28 | 800 | 18 | 28 | CC(=O)OCC=C(C)CCC=C(C)C(C)CCCC(C)C (stereo not shown) [Compound 32, 3,7,8,12-Tetramethyltrideca-2,6-dien-1-yl acetate] | 103 | 92 | 950 | 980 | –
9 | 480 | 38 (≈ 152 µM) | 32 (≈ 128 µM) | 20 (≈ 79.9 µM) | 22 (≈ 87.9 µM) | 690 | 38 (≈ 152 µM) | 48 (≈ 192 µM) | CC(=CC=O)CCC=C(C)C(C)CCCC(C)C (stereo not shown) [Compound 20, 3,7,8,12-Tetramethyltrideca-2,6-dienal] | 82 | 64 | 850 | 610 | –
10 | 630 | 36 (≈ 162 µM) | 36 (≈ 162 µM) | 26 (≈ 117 µM) | 28 (≈ 126 µM) | 730 | 34 (≈ 153 µM) | 46 (≈ 207 µM) | CC(C)=CCCC(C)CC(C)C(C)=CC=O (stereo not shown) [Compound 23, 3,4,6,10-Tetramethylundeca-2,9-dienal] | 87 | 82 | 900 | 800 | –
11 | 145 | 38 (≈ 151 µM) | 36 (≈ 143 µM) | 30 (≈ 119 µM) | 32 (≈ 127 µM) | 495 | 42 (≈ 166 µM) | 48 (≈ 190 µM) | CC(=CCO)CCC=C(C)C(C)CCCC(C)C (stereo not shown) [Compound 26, 3,7,8,12-Tetramethyltrideca-2,6-dien-1-ol] | 96 | 76 | 620 | 531 | –
